Experimental data: publication PMC6013247, “Preclinical characterization of INCB053914, a novel pan-PIM kinase inhibitor, alone and in combination with anticancer agents, in models of hematologic malignancies” (PLoS ONE, 2018)

How the values were obtained:
LOK = LOK (Homo sapiens, UniProt O94804); test: Kinase selectivity panel; assay type: biochemical; settings: [ATP] = 1 mM
EPHA2 = EPHA2 (Homo sapiens, UniProt P29317); test: Kinase selectivity panel; assay type: biochemical; settings: [ATP] = 1 mM
FLT3 = FLT3 (Homo sapiens, UniProt P36888); test: Kinase selectivity panel; assay type: biochemical; settings: [ATP] = 1 mM
RPS6KB1 = RPS6KB1 (Homo sapiens, UniProt P23443); test: Kinase selectivity panel; assay type: biochemical; settings: [ATP] = 1 mM
[1] = test system: primary bone marrow blasts from patients with AML; test: Ex vivo treatment of primary bone marrow blasts from patients with AML (Western blot); assay type: cell-based, human
Description: The effects of INCB053914 on pBAD, pp70S6K, and p4E-BP1 levels and on the expression of PIM isozymes also were assessed ex vivo in primary bone marrow blasts (Stem Cell and Xenograft Core, University of Pennsylvania, Philadelphia, Pennsylvania) or in peripheral blood mononuclear cells (PBMCs) derived from whole blood samples obtained with informed written consent from adult patients with AML enrolled in an ongoing phase 1/2 dose-escalation trial, which was conducted in accordance with the study protocol approved by the respective institutional review boards or independent ethics committees. Only samples initially containing >90% viable cells were used (assessed by Trypan Blue staining). Immediately after thawing, the blasts were cultured in RPMI + 10% FBS with INCB053914 for 2 hours at 37°C, before lysis. For determinations of PIM2 expression in PBMCs, whole blood samples were treated overnight with increasing concentrations of INCB053914; total PBMCs were isolated by Ficoll-Paque density gradient centrifugation before lysis. The levels of PIM isozymes and phosphoproteins in cell lysates were detected by Western blotting using the same primary antibodies as above.

SYK = SYK (Homo sapiens, UniProt P43405); test: Kinase selectivity panel; assay type: biochemical; settings: [ATP] = 1 mM
ERBB4 = ERBB4 (Homo sapiens, UniProt Q15303); test: Kinase selectivity panel; assay type: biochemical; settings: [ATP] = 1 mM
panel of 192 kinases = test: Broader panel of 192 kinases (PerkinElmer); assay type: biochemical; settings: INCB053914 100 nM; results not shown
CLK3 = CLK3 (Homo sapiens, UniProt P49761); test: Kinase selectivity panel; assay type: biochemical; settings: [ATP] = 1 mM
[2] = test system: PIM2 expression in KG-1a, Pfeiffer and KMS-12-PE cells; test: Western blot of PIM2 expression in cell lines; assay type: cell-based; settings: KG-1a (AML)
AKT1 = AKT1 (Homo sapiens, UniProt P31749); test: Kinase selectivity panel; assay type: biochemical; settings: [ATP] = 1 mM
PIM3 = PIM3 (Homo sapiens, UniProt Q86V86); test: PIM3 AlphaScreen kinase assay; assay type: biochemical; settings: 1 mM ATP; read-out: Mean (SD) IC50
Description: AlphaScreen assay. Reactions (20 μl) were carried out in white 384-well polystyrene plates (Greiner Bio-One, Kremsmünster, Austria) dotted with 0.8 μl of the compound in dimethylsulfoxide in the assay buffer (50 mM Tris, pH 7.5, 0.01% Tween-20, 5 mM MgCl2, 0.01% bovine serum albumin [BSA], 5 mM dithiothreitol) containing 0.05 μM Biotin-labeled Bcl-2–associated death promoter protein peptide substrate (AnaSpec, Fremont, California), 1 mM ATP, and 2.5 pM PIM1 (Invitrogen, Thermo Fisher Scientific, Waltham, Massachusetts), or 1.25 pM PIM3 (Millipore, Billerica, Massachusetts) enzyme. After 1 hour at 25°C, the reactions were stopped with 10 μl STOP Buffer (150 mM Tris, pH 7.5, 150 mM NaCl, 75 mM ethylenediaminetetraacetic acid [EDTA], 0.01% Tween-20, 0.3% BSA) supplemented with Phospho-Bad (Ser112) antibody (Cell Signaling Technology, Danvers, Massachusetts) diluted 666-fold, and Streptavidin donor beads (PerkinElmer, Waltham, Massachusetts), along with Protein-A acceptor beads (PerkinElmer, Akron, Ohio), at 15 μg/ml each. Supplementation of STOP buffer with beads and stopping the reactions were carried out under reduced light. […] After the reactions were stopped, the plates were incubated for 1 hour in the dark at room temperature and then read on a PHERAstar FS plate reader (BMG Labtech, Cary, North Carolina) under reduced light.

INA-6 cells = test: STAT3(Y705) and PIM kinase substrate phosphorylation in INA-6 cells in culture; assay type: cell-based; settings: INA-6 cells treated for 24 hours in culture
Description: Fig S1. Effects of INCB053914 on STAT3(Y705) and PIM kinase substrate phosphorylation in INA-6 cells treated for 24 hours in culture.

[3] = test system: KMS-12-BM (MM) xenografts; test: Tumor growth in KMS-12-BM (MM) xenograft; assay type: in vivo, mouse; settings: KMS-12-BM tumors
Description: Female immune compromised (severe combined immunodeficiency [SCID]) mice (5–9 weeks of age; Charles River Laboratories, Wilmington, Massachusetts) were inoculated with MOLM-16, KG-1, or KMS-12-BM cells. A cell suspension in Dulbecco’s phosphate-buffered saline (DPBS) (1 × 10^8 cells/ml) was mixed 1:1 (v/v) with matrigel, and 200 μl was injected subcutaneously into the flank of each mouse. Studies of INCB053914 combination regimens used xenograft models derived from INA-6 (MM) cells or Pfeiffer (DLBCL) cells. INA-6 tumor fragments were injected subcutaneously as brei (100 μl in Hank’s balanced salt solution [HBSS, 1:10 v/v]) into the flank of each mouse; Pfeiffer tumor fragments (1 cm × 1 cm) were directly implanted. The treatment of tumor-bearing mice started 7 to 24 days after tumor inoculation for efficacy studies and approximately 14 to 27 days after tumor inoculation for pharmacodynamic studies.
For efficacy studies, mice were sorted to obtain approximately equivalent mean tumor volumes in each group. The starting mean tumor volume in efficacy studies for all groups ranged from 158 mm^3 to 249 mm^3, and groups consisted of eight or nine animals. The mean tumor volume in pharmacodynamic studies for all groups ranged from 114 mm^3 to 833 mm^3, and groups consisted of three to eight animals. INCB053914 was administered by oral gavage twice a day for 7 to 19 days (suspension in 5% dimethylacetamide with 0.5% w/v methylcellulose [Sigma-Aldrich]) or by subcutaneous continuous infusion (Alzet osmotic pumps; flow rate 0.5 μl/h for efficacy studies and 1.0 μl/h for pharmacodynamic studies).
For the evaluation of the effects of INCB053914 on tumor growth, tumor-bearing mice (MOLM-16 xenograft, eight mice/group; KMS-12-BM xenograft, nine mice/group) were dosed orally twice a day with INCB053914 at doses ranging from 0 (vehicle) to 100 mg/kg for 15 days.
Tumor volume was calculated in two dimensions using the equation: volume = [length × (width^2)] / 2, where the larger number was length and the smaller number was width. Effects on tumor growth were reported as percent tumor growth inhibition calculated as (1 − [treatment volume / control volume]) × 100, where control volume was the vehicle/untreated tumor volume on a given day and treatment volume was any treatment group tumor volume on that same day. Statistical significance of differences between treatment and vehicle controls was assessed using analysis of variance single factor test.

PAK4 = PAK4 (Homo sapiens, UniProt O96013); test: Kinase selectivity panel; assay type: biochemical; settings: [ATP] = 1 mM
LCK = LCK (Homo sapiens, UniProt P06239); test: Kinase selectivity panel; assay type: biochemical; settings: [ATP] = 1 mM
PLK3 = PLK3 (Homo sapiens, UniProt Q9H4B4); test: Kinase selectivity panel; assay type: biochemical; settings: [ATP] = 1 mM
RSK2 = RSK2 (Homo sapiens, UniProt P51812); test: Kinase selectivity panel; assay type: biochemical
Chain of RSK2 (P51812 whole entry): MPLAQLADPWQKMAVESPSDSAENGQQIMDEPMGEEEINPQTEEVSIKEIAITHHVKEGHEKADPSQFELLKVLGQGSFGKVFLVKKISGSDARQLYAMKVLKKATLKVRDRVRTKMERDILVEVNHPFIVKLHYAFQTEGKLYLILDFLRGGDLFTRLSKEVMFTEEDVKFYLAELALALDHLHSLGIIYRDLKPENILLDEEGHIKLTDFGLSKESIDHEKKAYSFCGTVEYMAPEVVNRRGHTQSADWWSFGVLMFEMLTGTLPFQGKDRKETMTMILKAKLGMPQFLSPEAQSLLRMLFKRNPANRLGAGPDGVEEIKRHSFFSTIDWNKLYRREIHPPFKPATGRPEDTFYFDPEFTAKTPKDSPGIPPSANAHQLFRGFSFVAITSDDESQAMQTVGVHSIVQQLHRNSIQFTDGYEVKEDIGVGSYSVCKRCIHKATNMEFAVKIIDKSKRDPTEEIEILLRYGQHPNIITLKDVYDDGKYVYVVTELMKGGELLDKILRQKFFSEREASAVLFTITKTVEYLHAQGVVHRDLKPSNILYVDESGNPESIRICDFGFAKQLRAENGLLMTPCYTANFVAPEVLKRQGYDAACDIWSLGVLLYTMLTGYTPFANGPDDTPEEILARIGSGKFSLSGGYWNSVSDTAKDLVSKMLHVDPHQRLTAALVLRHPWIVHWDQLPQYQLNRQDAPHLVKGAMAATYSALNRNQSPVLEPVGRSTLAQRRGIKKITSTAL

Chain of ERBB4 (Q15303 26-1308): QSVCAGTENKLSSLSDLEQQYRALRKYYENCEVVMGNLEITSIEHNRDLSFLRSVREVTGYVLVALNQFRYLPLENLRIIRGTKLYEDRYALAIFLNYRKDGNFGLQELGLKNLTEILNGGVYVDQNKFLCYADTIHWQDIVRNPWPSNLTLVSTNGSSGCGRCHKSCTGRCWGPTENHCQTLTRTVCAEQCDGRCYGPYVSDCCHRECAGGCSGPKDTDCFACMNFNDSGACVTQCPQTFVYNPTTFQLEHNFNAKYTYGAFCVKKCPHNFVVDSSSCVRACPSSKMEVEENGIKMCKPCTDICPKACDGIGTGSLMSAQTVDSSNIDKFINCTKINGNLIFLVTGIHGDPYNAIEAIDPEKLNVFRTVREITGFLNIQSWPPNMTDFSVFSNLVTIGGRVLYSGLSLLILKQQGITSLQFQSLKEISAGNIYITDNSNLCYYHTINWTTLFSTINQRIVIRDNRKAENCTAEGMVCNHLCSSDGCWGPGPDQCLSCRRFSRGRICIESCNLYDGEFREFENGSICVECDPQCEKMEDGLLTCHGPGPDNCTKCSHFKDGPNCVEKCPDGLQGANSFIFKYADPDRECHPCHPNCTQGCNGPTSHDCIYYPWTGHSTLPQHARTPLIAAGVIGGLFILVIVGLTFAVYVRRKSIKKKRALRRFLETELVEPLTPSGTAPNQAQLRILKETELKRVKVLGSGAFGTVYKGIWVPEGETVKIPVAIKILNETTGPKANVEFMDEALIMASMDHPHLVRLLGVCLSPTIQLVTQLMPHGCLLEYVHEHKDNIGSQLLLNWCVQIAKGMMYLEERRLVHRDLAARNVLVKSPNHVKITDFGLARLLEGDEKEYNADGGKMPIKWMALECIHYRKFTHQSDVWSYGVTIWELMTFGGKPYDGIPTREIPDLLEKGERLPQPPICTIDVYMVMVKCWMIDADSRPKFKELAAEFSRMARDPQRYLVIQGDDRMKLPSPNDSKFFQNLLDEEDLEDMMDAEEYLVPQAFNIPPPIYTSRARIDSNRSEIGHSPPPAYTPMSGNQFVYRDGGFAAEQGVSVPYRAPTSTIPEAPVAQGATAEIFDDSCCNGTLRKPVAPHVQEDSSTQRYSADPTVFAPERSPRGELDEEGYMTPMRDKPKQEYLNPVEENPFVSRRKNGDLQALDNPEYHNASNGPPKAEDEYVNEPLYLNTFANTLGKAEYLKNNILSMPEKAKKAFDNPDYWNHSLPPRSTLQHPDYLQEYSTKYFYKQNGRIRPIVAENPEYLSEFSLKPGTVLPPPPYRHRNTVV
Chain of PLK3 (Q9H4B4 whole entry): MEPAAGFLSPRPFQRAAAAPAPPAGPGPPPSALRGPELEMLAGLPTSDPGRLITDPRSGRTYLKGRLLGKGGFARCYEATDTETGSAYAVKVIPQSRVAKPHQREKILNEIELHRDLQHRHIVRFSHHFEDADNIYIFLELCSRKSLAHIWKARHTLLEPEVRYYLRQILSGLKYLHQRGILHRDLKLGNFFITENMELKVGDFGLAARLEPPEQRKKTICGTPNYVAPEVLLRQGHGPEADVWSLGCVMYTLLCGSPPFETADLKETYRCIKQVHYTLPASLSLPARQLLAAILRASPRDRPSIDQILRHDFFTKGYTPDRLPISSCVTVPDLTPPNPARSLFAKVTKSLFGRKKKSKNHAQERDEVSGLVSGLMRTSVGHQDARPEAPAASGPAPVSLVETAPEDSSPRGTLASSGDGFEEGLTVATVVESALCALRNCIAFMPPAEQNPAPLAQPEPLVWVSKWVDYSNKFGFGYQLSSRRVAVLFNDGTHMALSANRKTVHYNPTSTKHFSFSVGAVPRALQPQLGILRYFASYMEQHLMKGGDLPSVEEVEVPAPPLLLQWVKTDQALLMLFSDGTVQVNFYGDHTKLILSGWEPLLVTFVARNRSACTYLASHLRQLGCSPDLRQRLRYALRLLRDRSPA
Chain of AKT1 (P31749 whole entry): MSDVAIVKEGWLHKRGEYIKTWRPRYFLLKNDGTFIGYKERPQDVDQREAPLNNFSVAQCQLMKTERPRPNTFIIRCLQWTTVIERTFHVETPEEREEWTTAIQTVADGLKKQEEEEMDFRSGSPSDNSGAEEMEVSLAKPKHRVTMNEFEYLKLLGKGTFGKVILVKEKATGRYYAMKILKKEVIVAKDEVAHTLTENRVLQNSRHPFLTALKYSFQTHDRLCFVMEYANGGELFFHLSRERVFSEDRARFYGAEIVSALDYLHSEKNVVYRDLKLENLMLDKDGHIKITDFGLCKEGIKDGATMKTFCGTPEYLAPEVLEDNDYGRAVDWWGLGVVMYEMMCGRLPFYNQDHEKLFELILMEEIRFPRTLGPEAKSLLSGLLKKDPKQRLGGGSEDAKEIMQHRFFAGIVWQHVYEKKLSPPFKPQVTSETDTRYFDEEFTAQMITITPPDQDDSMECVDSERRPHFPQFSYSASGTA
Chain of EPHA2 (P29317 24-976): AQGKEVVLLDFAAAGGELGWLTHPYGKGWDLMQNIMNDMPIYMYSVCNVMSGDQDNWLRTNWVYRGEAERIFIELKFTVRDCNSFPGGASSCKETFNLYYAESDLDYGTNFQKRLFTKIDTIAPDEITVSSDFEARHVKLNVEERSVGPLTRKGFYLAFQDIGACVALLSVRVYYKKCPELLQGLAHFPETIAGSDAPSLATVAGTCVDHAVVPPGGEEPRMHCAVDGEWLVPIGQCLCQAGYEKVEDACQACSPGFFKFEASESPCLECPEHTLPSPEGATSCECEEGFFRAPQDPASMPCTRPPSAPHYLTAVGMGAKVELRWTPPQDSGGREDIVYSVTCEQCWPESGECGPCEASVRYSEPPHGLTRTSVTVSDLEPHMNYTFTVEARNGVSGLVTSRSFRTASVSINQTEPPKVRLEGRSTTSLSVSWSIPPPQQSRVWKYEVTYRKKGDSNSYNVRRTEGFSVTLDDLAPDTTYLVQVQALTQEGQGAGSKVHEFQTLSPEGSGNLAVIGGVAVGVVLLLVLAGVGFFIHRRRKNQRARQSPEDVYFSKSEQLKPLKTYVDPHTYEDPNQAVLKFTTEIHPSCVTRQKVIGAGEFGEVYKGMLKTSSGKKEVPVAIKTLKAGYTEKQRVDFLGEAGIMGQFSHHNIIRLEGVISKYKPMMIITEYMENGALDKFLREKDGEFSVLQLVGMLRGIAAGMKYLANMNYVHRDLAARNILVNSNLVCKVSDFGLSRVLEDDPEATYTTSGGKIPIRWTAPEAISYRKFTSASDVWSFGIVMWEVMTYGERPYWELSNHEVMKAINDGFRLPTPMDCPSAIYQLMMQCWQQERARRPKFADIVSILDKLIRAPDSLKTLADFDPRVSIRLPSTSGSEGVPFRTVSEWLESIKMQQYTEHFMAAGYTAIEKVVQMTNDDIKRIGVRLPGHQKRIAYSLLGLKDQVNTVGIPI
Chain of LOK (O94804 whole entry): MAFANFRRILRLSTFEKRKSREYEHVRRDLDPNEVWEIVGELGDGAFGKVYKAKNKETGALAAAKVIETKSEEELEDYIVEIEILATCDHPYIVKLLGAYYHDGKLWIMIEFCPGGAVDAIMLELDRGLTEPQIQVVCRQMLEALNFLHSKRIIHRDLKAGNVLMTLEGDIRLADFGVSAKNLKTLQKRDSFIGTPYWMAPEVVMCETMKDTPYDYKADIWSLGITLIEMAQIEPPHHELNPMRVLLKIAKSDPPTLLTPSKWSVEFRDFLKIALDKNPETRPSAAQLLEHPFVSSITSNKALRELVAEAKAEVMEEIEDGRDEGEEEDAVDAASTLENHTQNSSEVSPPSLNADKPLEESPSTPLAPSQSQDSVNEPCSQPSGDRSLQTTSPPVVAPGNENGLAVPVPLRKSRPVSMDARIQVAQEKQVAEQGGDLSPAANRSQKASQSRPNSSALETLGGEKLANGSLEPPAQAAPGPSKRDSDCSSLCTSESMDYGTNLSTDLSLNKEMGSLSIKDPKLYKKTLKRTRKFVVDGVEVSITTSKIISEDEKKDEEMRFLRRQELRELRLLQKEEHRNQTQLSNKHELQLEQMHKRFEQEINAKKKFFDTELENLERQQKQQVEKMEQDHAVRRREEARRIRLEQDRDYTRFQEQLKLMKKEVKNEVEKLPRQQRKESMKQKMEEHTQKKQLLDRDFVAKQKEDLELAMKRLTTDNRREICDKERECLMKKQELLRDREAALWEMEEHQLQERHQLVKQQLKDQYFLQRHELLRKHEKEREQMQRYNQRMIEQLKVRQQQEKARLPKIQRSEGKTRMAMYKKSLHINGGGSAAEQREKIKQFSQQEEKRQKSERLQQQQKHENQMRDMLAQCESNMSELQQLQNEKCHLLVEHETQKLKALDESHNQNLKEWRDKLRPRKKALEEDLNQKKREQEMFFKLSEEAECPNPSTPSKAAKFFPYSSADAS

`C[C@H]1CN(c2c(NC(=O)c3ccc(F)c(-c4c(F)cccc4F)n3)cnc3c2CC[C@H]3O)C[C@@H](N)[C@@H]1O.O=P(O)(O)O` [INCB053914, N-((R)-4-((3R,4R,5S)-3-amino-4-hydroxy-5-methylpiperidin-1-yl)-7-hydroxy-6,7-dihydro-5H-cyclopenta[b]pyridin-3-yl)-6-(2,6-difluorophenyl)-5-fluoropicolinamide phosphate] was tested, and the IC50 (LOK) was over 20 µM, the IC50 (EPHA2) was over 20 µM and the IC50 (FLT3) was over 20 µM. The IC50 (RPS6KB1) was over 20 µM, the “patients whose blasts showed decreases in BAD phosphorylation” value [1] was “two of four patients” and the PIM2 expression ([1]; 2 hours) was “increased PIM2 expression”. For the same molecule, the “phosphorylation of p70S6K and 4E-BP1” value ([1]; 2 hours) was “decreased phosphorylation of p70S6K and 4E-BP1”, the IC50 (SYK) was over 20 µM and the IC50 (ERBB4) was over 20 µM. The “kinases significantly inhibited in the panel of 192 kinases” value (panel of 192 kinases) was “no kinase other than Per-Arnt-Sim (PAS) kinase was significantly inhibited”, the IC50 (CLK3) was over 20 µM and the PIM2 expression [2] was “increased PIM2 expression”. The IC50 (AKT1) was over 20 µM, the IC50 (PIM3) was 0.00012 µM and the “pSTAT3(Y705) levels” value (INA-6 cells) was “negligible effects”. For the same molecule, the tumor growth inhibition ([3]; 25 mg/kg twice a day) was 43%, the tumor growth inhibition ([3]; 50 mg/kg twice a day) was 71% and the tumor growth inhibition ([3]; 75 mg/kg twice a day) was 77%. For the same molecule, the tumor growth inhibition ([3]; 100 mg/kg twice a day) was 88%, the IC50 (PAK4) was over 20 µM and the IC50 (LCK) was over 20 µM. It also gave an IC50 (PLK3) of over 20 µM, an IC50 (RSK2; [ATP] = 1 mM) of 7.12 µM and an IC50 (RSK2; as given in the text) of 7.1 µM.
